This is an account of results in patent US20090093493A1, “1-PHENYLALCOXY-2-BETA-PHENYLETHYL DERIVATIVES AS P-GLYCOPROTEIN (P-GP) INHIBITORS USEFUL IN DRUG RESISTANCE EVENTS” (priority 2007, published 2009).

Where two headings read alike, the source gives them in different places.

Series [1] addresses T1, P-gp (Homo sapiens, UniProt P08183). Kind of series: Classification of compounds interfering with P-gp activity (method of Polli et al. / Taub et al.). Format: cell-based. Also noted: apparent permeability determined in Caco-2 cells; endogenous in cells; host or cells: Caco-2. The settings on record: above-described assays.
Source text: The biological assays performed verify a) transport for each for each candidate compound by P-gp (apparent permeability determined in Caco-2 cells); b) ATP-ase activation in Caco-2 cells; c) inhibition of [^3H] Vinblastine basolateral-apical transport (in Caco-2 cells) and of rhodamine (in guinea pig ileum).
The target in series [2] is T2, P-glycoprotein (Homo sapiens, UniProt P08183). Description: Doxorubicin accumulation in MCF7/Adr cells after pretreatment with compound (flow cytometry). As to conditions: for endocellular accumulation: above-described assays.
Procedure: (§1) Another assay is performed on MCF-7/ADr cells. These cells, resistant to the chemotherapy agent doxorubicin, are exposed for some hours to the compound under examination and subsequently treated with doxorubicin. The amount of doxorubicin entering the cell following treatment with the compounds under examination is then measured.
(§2) At the end of the incubation, the incubation medium containing the compound under examination was removed, and fresh medium containing 50 μM doxorubicin was added for 24 h. The negative control consisted of plates containing an alike number of cells untreated with the compound. At the end of the 24 h, the medium was removed and the cells split and prepared according to standard procedure for flow cytometry analysis.
For series [3], the target named is T1, P-gp. The settings on record: reported in literature; cited from earlier work.
Series [4] deals with T2, P-glycoprotein.
Procedure: as §1, §2
Setting [5] is: MCF7/Adr, 20 μM compound for 120 min, then 50 μM doxorubicin for 24 h.

T2 sequence (P08183 whole entry): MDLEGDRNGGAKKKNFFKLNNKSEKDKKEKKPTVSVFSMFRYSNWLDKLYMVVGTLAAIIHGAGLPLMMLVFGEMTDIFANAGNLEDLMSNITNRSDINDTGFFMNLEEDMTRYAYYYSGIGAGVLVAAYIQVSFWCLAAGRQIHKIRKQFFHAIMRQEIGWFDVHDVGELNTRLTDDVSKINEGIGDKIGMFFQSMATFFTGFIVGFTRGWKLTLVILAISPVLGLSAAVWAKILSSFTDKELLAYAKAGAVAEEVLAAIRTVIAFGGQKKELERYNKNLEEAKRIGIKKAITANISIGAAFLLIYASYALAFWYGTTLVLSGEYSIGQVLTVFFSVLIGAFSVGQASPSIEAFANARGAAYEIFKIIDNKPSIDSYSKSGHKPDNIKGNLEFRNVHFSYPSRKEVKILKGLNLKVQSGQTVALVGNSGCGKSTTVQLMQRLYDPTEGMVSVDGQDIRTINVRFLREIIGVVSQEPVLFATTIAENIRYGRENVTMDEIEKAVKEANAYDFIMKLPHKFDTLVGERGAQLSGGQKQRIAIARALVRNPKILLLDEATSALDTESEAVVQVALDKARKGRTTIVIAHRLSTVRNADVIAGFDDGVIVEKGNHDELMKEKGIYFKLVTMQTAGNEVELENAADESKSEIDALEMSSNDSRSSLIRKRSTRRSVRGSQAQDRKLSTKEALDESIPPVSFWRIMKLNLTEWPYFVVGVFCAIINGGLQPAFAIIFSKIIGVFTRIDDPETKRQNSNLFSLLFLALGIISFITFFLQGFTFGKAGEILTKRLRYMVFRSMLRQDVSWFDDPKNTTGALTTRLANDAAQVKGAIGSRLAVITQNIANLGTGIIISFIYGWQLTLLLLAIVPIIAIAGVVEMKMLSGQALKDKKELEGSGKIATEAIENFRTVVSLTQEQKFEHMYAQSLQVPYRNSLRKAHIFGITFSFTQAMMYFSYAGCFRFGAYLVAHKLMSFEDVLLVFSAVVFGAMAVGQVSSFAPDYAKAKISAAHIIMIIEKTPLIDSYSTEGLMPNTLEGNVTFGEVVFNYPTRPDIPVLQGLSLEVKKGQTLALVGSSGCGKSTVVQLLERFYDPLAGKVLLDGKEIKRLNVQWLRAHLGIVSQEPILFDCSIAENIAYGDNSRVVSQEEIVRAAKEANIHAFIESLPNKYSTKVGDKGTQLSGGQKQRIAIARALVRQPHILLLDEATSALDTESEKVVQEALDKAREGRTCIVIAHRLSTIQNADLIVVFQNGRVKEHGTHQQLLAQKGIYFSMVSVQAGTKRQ
T1 sequence (P08183 whole entry): as above

`c1ccc(CCc2ccccc2OCc2ccccc2)cc1` [EB 30, 1-(benzyloxy)-2-(2-phenylethyl)benzene]: on P-gp [1], the “Category of interference with P-gp activity” value is reported as “IIB”.

In the case of `COc1cccc(CCc2ccccc2OCc2cccc(OC)c2)c1` [EB27, 1-[(3-methoxybenzyl)oxy]-2-[2-(3-methoxyphenyl)ethyl]benzene], the “inletting of doxorubicin in the cells” value on P-glycoprotein [2] (setting [5]) is given as “increase”. The endocellular accumulation entry at P-glycoprotein [2] is on record as “very high”.

As to `COc1cc2c(cc1OC)CN(CCc1ccc(NC(=O)c3cccc4c(=O)c5cccc(OC)c5[nH]c34)cc1)CC2` [GF120918], the “classification as pure inhibitor of P-gp” value at P-gp [3] is listed as “sole pure inhibitor of P-gp”.

For `COc1cccc(CCc2ccccc2OCCCN2CCN(c3ncccn3)CC2)c1` [EB25, 3-{2-[2-(3-methoxyphenyl)ethyl]phenoxy}propan-1-[4-(2-pyrimidyl)piperazine]], the endocellular accumulation result on P-glycoprotein [4] was “very high”.

On to `COc1cccc(CCc2ccccc2OCc2ccccn2)c1` [EB12, 2({2-[2-(3-methoxyphenyl)ethyl]phenoxy}methyl]pyridine], for which, at P-glycoprotein [2] (setting [5]), the “effectiveness in P-glycoprotein inhibition relative to Verapamil and EB27” value came to 5 fold; the “inletting of doxorubicin in the cells” value is reported as “increase”. Besides, the endocellular accumulation result at P-glycoprotein [2] was “very high”.
